Experimental data reported in ChEMBL document CHEMBL1136892, “New 1alpha,25-dihydroxy-19-norvitamin D(3) compounds constrained in a single A-ring conformation: synthesis of the analogues by ring-closing metathesis route and their biological evaluation” (J Med Chem, 2009).

What was measured:
Rattus norvegicus [1] = assay: Effect on intestinal calcium transport in vitamin D-deficient weanling Sprague-Dawley rat assessed as increase in ratio of serosal to mucosal calcium level at 260 pmol/day, ip administered as 4 consecutive daily doses measured 24 hrs after last dose by everted gut sac method; type: functional
Rattus norvegicus [2] = assay: Effect on bone calcium mobilization in vitamin D-deficient weanling Sprague-Dawley rat assessed as serum calcium level at 7020 pmol/day, ip administered as 4 consecutive daily doses measured 24 hrs after last dose; type: functional
HL-60 [3] = assay: Induction of human HL60 cell differentiation into monocytes after 4 days by NBT reduction assay; type: functional
Rattus norvegicus [4] = assay: Effect on intestinal calcium transport in vitamin D-deficient weanling Sprague-Dawley rat assessed as increase in ratio of serosal to mucosal calcium level at 35100 pmol/day, ip administered as 4 consecutive daily doses measured 24 hrs after last dose by everted gut sac method; type: functional
Rattus norvegicus [5] = assay: Effect on bone calcium mobilization in vitamin D-deficient weanling Sprague-Dawley rat assessed as serum calcium level at 87 pmol/day, ip administered as 4 consecutive daily doses measured 24 hrs after last dose; type: functional
Rattus norvegicus [6] = assay: Effect on intestinal calcium transport in vitamin D-deficient weanling Sprague-Dawley rat assessed as ratio of serosal to mucosal calcium level at 87 pmol/day, ip administered as 4 consecutive daily doses measured 24 hrs after last dose by everted gut sac method; type: functional
Rattus norvegicus [7] = assay: Effect on intestinal calcium transport in vitamin D-deficient weanling Sprague-Dawley rat assessed as increase in ratio of serosal to mucosal calcium level at 2340 pmol/day, ip administered as 4 consecutive daily doses measured 24 hrs after last dose by everted gut sac method; type: functional
Rattus norvegicus [8] = assay: Effect on bone calcium mobilization in vitamin D-deficient weanling Sprague-Dawley rat assessed as serum calcium level at 35100 pmol/day, ip administered as 4 consecutive daily doses measured 24 hrs after last dose; type: functional
Rattus norvegicus [9] = assay: Effect on bone calcium mobilization in vitamin D-deficient weanling Sprague-Dawley rat assessed as serum calcium level at 780 pmol/day, ip administered as 4 consecutive daily doses measured 24 hrs after last dose; type: functional
Rattus norvegicus [10] = assay: Effect on bone calcium mobilization in vitamin D-deficient weanling Sprague-Dawley rat assessed as serum calcium level at 2340 pmol/day, ip administered as 4 consecutive daily doses measured 24 hrs after last dose; type: functional
[11] = target: T1, Vitamin D3 receptor (Rattus norvegicus) (UniProt P13053); assay: Activity at VDR in rat osteosarcoma 17/2.8 cells assessed as transcriptional activation of 24-hydroxylase gene promoter after 16 hrs by luciferase reporter gene assay
T1 sequence (whole entry): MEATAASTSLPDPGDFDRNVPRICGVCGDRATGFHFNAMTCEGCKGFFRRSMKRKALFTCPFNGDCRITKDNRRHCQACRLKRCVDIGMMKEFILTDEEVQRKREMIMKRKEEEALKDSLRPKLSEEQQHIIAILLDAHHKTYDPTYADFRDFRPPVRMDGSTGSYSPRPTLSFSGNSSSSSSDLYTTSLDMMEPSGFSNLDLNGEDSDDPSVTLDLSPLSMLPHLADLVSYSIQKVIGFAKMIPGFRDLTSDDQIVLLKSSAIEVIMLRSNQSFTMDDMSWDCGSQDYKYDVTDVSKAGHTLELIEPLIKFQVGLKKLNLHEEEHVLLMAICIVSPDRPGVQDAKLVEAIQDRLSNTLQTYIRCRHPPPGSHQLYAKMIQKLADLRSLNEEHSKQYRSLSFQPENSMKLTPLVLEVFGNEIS

Rattus norvegicus [12] = assay: Effect on bone calcium mobilization in vitamin D-deficient weanling Sprague-Dawley rat assessed as serum calcium level at 260 pmol/day, ip administered as 4 consecutive daily doses measured 24 hrs after last dose; type: functional
Rattus norvegicus [13] = assay: Effect on intestinal calcium transport in vitamin D-deficient weanling Sprague-Dawley rat assessed as increase in ratio of serosal to mucosal calcium level at 780 pmol/day, ip administered as 4 consecutive daily doses measured 24 hrs after last dose by everted gut sac method; type: functional
Rattus norvegicus [14] = assay: Effect on intestinal calcium transport in vitamin D-deficient weanling Sprague-Dawley rat assessed as increase in ratio of serosal to mucosal calcium level at 7020 pmol/day, ip administered as 4 consecutive daily doses measured 24 hrs after last dose by everted gut sac method; type: functional
[15] = target: T1, Vitamin D3 receptor (Rattus norvegicus); assay: Ratio of Ki of the drug to Ki of [3H]1-alpha,25-(OH)2D3 for rat recombinant full length VDR
Vitamin D3 receptor = target: T2, Vitamin D3 receptor (Rattus norvegicus, UniProt P13053); assay: Displacement of [3H]1-alpha,25-(OH)2D3 from rat recombinant full length VDR
T2 sequence (P13053 whole entry): T1 sequence (whole entry)

HL-60 [16] = assay: Ratio of ED50 of drug to ED50 of [3H]1-alpha,25-(OH)2D3 for induction of human HL60 cell differentiation into monocytes by NBT reduction assay; type: functional
[17] = target: T1, Vitamin D3 receptor (Rattus norvegicus); assay: Ratio of ED50 of compound to ED50 of [3H]1-alpha,25-(OH)2D3 for VDR in rat osteosarcoma 17/2.8 cells by 24-hydroxylase gene transcriptional activation assay

| Compound | Activity (Rattus norvegicus [1]) [mg/dL] | Activity (Rattus norvegicus [2]) [mg/dL] | ED50 (HL-60 [3]) | Activity (Rattus norvegicus [4]) [mg/dL] | Activity (Rattus norvegicus [5]) [mg/dL] | Activity (Rattus norvegicus [6]) [mg/dL] | Activity (Rattus norvegicus [7]) [mg/dL] | Activity (Rattus norvegicus [8]) [mg/dL] | Activity (Rattus norvegicus [9]) [mg/dL] | Activity (Rattus norvegicus [10]) [mg/dL] | ED50 [11] | Activity (Rattus norvegicus [12]) [mg/dL] | Activity (Rattus norvegicus [13]) [mg/dL] | Activity (Rattus norvegicus [14]) [mg/dL] | Ratio Ki [15] | Ki (Vitamin D3 receptor) [nM] | Ratio ED50 (HL-60 [16]) | Ratio ED50 [17] |
| --- | --- | --- | --- | --- | --- | --- | --- | --- | --- | --- | --- | --- | --- | --- | --- | --- | --- | --- |
| C=C1/C(=C\C=C2/CCC[C@]3(C)[C@@H]([C@H](C)CCCC(C)(C)O)CC[C@@H]23)C[C@@H](O)C[C@@H]1O [CALCITRIOL] | 12 | 7.9 | 3 ×10⁻⁹ M | 8.7 | 4.9 | 8.9 | 10.2 | 9 | 5.8 | 7.3 | 2 ×10⁻¹⁰ M | 5.6 | 11.3 | 10.2 |  |  |  |  |
| C=C1/C(=C\C=C2/CCC[C@]3(C)[C@@H]([C@H](C)CCCC(C)(C)O)CC[C@@H]23)C[C@H]2OCC=C2[C@@H]1O |  | 6.1 | 1 ×10⁻⁶ M | 8.7 |  |  |  | 9.6 | 4.3 |  | 6 ×10⁻⁸ M |  | 11.3 | 10.2 | 600 | 60 | 330 | 300 |
| C=C1/C(=C\C=C2/CCC[C@]3(C)[C@@H]([C@H](C)CCCC(C)(C)O)CC[C@@H]23)C[C@@H](O)C2=CCO[C@H]12 |  | 4.6 | 3 ×10⁻⁸ M |  |  |  |  |  | 4.3 |  | 6 ×10⁻⁹ M |  | 9.7 | 13.7 | 2 | 0.2 | 10 | 30 |
